Assay results: publication doi:10.1101/2025.08.17.668569v1 (bioRxiv, 2025)
Ends that are not written are not given here.

What was measured:
Solubility in water = format: physicochemical
[1] = test system: 4T1 murine triple-negative breast cancer cells; assay: LDH assay; format: cell-based
[2] = test system: B16-F10 murine melanoma cells; assay: LDH assay, B16-F10 cells; format: cell-based; conditions: read-out: EC50 B16-F10, Fig. 2A, 2 h, representative of N = 3
[3] = Half-life in murine serum; format: in vitro ADME; conditions: mouse
[4] = test system: Panc10.05 human pancreatic cancer cells; assay: LDH assay, Panc10.05 cells; format: cell-based; conditions: read-out: EC50 Panc10.05, Fig. 2B, 2 h, representative of N = 3
CT26 tumors = assay: Tumor growth, CT26 murine colorectal model; format: in vivo, BALB/c mice; conditions: intratumoral NF27
[5] = test system: HT-29 human colorectal cancer cells; assay: LDH assay, HT-29 cells; format: cell-based; conditions: read-out: EC50 HT-29, Fig. 2B, 2 h, representative of N = 3
[6] = test system: U2OS human osteosarcoma cells; assay: LDH assay, U2OS cells; format: cell-based; conditions: read-out: EC50 U2OS, Fig. 2B, 2 h, representative of N = 3
[7] = test system: human melanoma cell line LOX IMVI; assay: NCI-60 screen, LOX IMVI; format: cell-based; conditions: 48 h, SRB
[8] = test system: MCA205 murine fibrosarcoma cells; assay: LDH assay, MCA205 cells; format: cell-based; conditions: read-out: EC50 MCA205, Fig. 2A, 2 h, representative of N = 3
SUM149 cells = assay: LDH assay, SUM149 cells; format: cell-based, human; conditions: read-out: EC50 SUM149, Fig. 2B, 2 h, representative of N = 3
[9] = test system: NCI-60 human tumor cell lines (59 cancer cell lines); conditions: 48 h
[10] = test system: CT2A murine glioblastoma cells; assay: LDH assay, CT2A cells; format: cell-based; conditions: read-out: EC50 CT2A, Fig. 2A, 2 h, representative of N = 3
[11] = test system: CT26 murine colon carcinoma cells; assay: LDH assay, CT26 cells; format: cell-based; conditions: read-out: EC50 CT26, Fig. 2A, 2 h, representative of N = 3
[12] = test system: HepG2 human liver cancer cells; assay: LDH assay, HepG2 cells; format: cell-based; conditions: read-out: EC50 HepG2, Fig. 2B, 2 h, representative of N = 3

In the case of NGRKACLNPASIVKKIIKKILKI [NF11], the “solubility in water” value (Solubility in water; lyophilized powder in water) is reported as “formed a hard gel in water”.
In the case of NGRKAKKNAKKVKKIIKKIKKI-NH2 [NF22], the “oncolytic activity (LDH release)” value ([1]; initial screen, 4T1 cells) is reported as “no detectable oncolytic activity”.
Work on NGRKAKLNPASIVKKIIKKILKS-NH2 [NF27] yielded an EC50 [2] of 10.9 µM, a half-life [3] of 29 min and an EC50 [4] of 21.3 µM. The “side effects in murine tumor models” value (CT26 tumors) was “no observable side effects”, the EC50 [5] was 24 µM and the EC50 [6] was 11.5 µM. For the same substance, the GI50 [7] was 26.3 µM, the EC50 [8] was 10.5 µM and the EC50 (SUM149 cells) was 6.6 µM. The GI50 [9] was less than 10 µM, the EC50 [10] was 14.7 µM and the EC50 [11] was 4.4 µM. For the same substance, the EC50 [12] was 27.7 µM, the EC50 ([1]; read-out: EC50 4T1, Fig. 2A, LDH assay, 2 h, representative of N = 3) was 12 µM and the solubility (Solubility in water; water) was no less than 40 mM.
